Source: paper PMC6054628

Key:
[1] = Head-to-tail native chemical ligation in two-module microfluidic flow: SEAon peptide amide rearranged to SEAE thioester (pH 1, TCEP, 60 min, 90 or 65 C), then MPAA (0.4 M)/Na2HPO4 (0.2 M) pH 7.3 cyclisation onto N-terminal Cys, 4 min; settings: 30-membered ring, water (phosphate buffer, MPAA, TCEP; decane segmented carrier), 0.6 mM, 37.0 °C, 0.067 h, 2 steps, scale: %
[2] = Head-to-tail native chemical ligation in two-module microfluidic flow: SEAon peptide amide rearranged to SEAE thioester (pH 1, TCEP, 60 min, 90 or 65 C), then MPAA (0.4 M)/Na2HPO4 (0.2 M) pH 7.3 cyclisation onto N-terminal Cys; settings: 30-membered ring, water (phosphate buffer, MPAA, TCEP; decane segmented carrier; 6 M Gn.HCl for 4l-p), 0.6 mM, 37.0 °C, 0.067 h, 2 steps
[3] = from CC[C@H](C)[C@H](NC(=O)[C@@H](N)CS)C(=O)N[C@@H](CC(C)C)C(=O)N[C@@H](CC(N)=O)C(=O)NCC(=O)N1CCC[C@H]1C(=O)N[C@H](C(=O)N[C@@H](Cc1c[nH]cn1)C(=O)NCC(=O)N[C@@H](CC(C)C)C(=O)SCCNCCS)C(C)C
[4] = from CC[C@H](C)[C@H](NC(=O)[C@@H](N)CS)C(=O)N[C@@H](CC(C)C)C(=O)N[C@@H](CC(N)=O)C(=O)NCC(=O)N1CCC[C@H]1C(=O)N[C@H](C(=O)N[C@@H](Cc1c[nH]cn1)C(=O)NCC(=O)N[C@H](C(=O)SCCNCCS)C(C)C)C(C)C

Row | SMILES | ring closure, conversion by HPLC [1, 3] | ring closure, yield over several steps [2, 3] [%] | ring closure, conversion by HPLC [1, 4] | ring closure, yield over several steps [2, 4] [%]
1 | CC[C@H](C)[C@@H]1NC(=O)[C@H](CS)NC(=O)[C@H](CC(C)C)NC(=O)CNC(=O)[C@H](Cc2c[nH]cn2)NC(=O)[C@H](C(C)C)NC(=O)[C@@H]2CCCN2C(=O)CNC(=O)[C@H](CC(N)=O)NC(=O)[C@H](CC(C)C)NC1=O [H-CILNGPVHGL-SEAon (via SEAE thioester)] | 85 | 80 | – | –
2 | CC[C@H](C)[C@@H]1NC(=O)[C@H](CS)NC(=O)[C@H](C(C)C)NC(=O)CNC(=O)[C@H](Cc2c[nH]cn2)NC(=O)[C@H](C(C)C)NC(=O)[C@@H]2CCCN2C(=O)CNC(=O)[C@H](CC(N)=O)NC(=O)[C@H](CC(C)C)NC1=O [H-CILNGPVHGV-SEAon (via SEAE thioester)] | – | – | 63 | 66
